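1) Cells in 96-well plates. 2) Compound, 48 h, 5 concentrations. 3) Linear interpolation between surrounding doses. 4) Unreached endpoint = highest concentration. At the TGI there is no net growth.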
What was measured:
Test in all cases: DTP human tumour cell line panel, 48 h
[1] = system: UO-31 renal
[2] = system: 786-0 renal
[3] = system: SK-MEL-2 melanoma
[4] = system: MCF7 breast
[5] = system: A498 renal
[6] = system: RPMI-8226 leukemia
[7] = system: NCI-H522 lung
[8] = system: UACC-62 melanoma
[9] = system: LOX IMVI melanoma
[10] = system: MDA-MB-435
[11] = system: SR leukemia
[12] = system: SNB-19 CNS
[13] = system: MDA-N
[14] = system: HOP-62 NSCLC
[15] = system: HCT-15 colon
[16] = system: BT-549 breast
[17] = system: TK-10 renal
[18] = system: SK-OV-3 ovarian
[19] = system: HOP-92 NSCLC
[20] = system: NCI-H460 lung
[21] = system: COLO 205 colon
[22] = system: NCI-H226 lung
[23] = system: HCT-116 colon
[24] = system: SF-268 CNS
[25] = system: NCI-H23 lung
[26] = system: SNB-75 CNS
[27] = system: OVCAR-5 ovarian
[28] = system: SF-539 CNS
[29] = system: PC-3 prostate
[30] = system: EKVX NSCLC
[31] = system: IGROV1 ovarian
[32] = system: M14 melanoma
[33] = system: SK-MEL-28 melanoma
[34] = system: RXF 393 renal
[35] = system: T-47D breast
[36] = system: CCRF-CEM leukemia
[37] = system: MOLT-4 leukemia
[38] = system: DU-145 prostate
[39] = system: HT29 colon
[40] = system: NCI/ADR-RES ovarian
[41] = system: UACC-257 melanoma
[42] = system: MDA-MB-231 breast
[43] = system: OVCAR-3 ovarian
[44] = system: CAKI-1 renal
[45] = system: U251 CNS
[46] = system: SK-MEL-5 melanoma
[47] = system: HCC-2998 colon
[48] = system: SW-620 colon
[49] = system: OVCAR-4 ovarian
[50] = system: ACHN renal
[51] = system: SF-295 CNS
[52] = system: A549 NSCLC
[53] = system: SN12C renal
[54] = system: HS 578T breast
[55] = system: KM12 colon
[56] = system: OVCAR-8 ovarian
[57] = system: MALME-3M melanoma
[58] = system: K-562 leukemia
[59] = system: HL-60(TB) leukemia

In the case of `O=Cc1ccc(-c2nccc3c2[nH]c2ccccc23)o1`, the TGI [1] is reported as > 100 µM, the TGI [2] is reported as > 100 µM and the TGI [3] is reported as > 100 µM. The TGI [4] was > 100 µM, the TGI [5] was 1.46 µM and the TGI [6] was > 100 µM. For the same compound, the TGI [7] was > 100 µM, the TGI [8] was > 100 µM and the TGI [9] was > 56.2 µM. For the same compound, the TGI [10] was > 100 µM, the TGI [11] was > 100 µM and the TGI [12] was > 100 µM. The TGI [13] was > 100 µM, the TGI [14] was > 100 µM and the TGI [15] was > 100 µM. The TGI [16] was > 100 µM, the TGI [17] was > 100 µM and the TGI [18] was > 100 µM. The TGI [19] was 98.6 µM, the TGI [20] was > 100 µM and the TGI [21] was > 100 µM. The TGI [22] was 9.86 µM, the TGI [23] was > 100 µM and the TGI [24] was > 100 µM. For the same compound, the TGI [25] was > 100 µM, the TGI [26] was > 100 µM and the TGI [27] was > 100 µM. The TGI [28] was > 100 µM, the TGI [29] was > 100 µM and the TGI [30] was > 100 µM. The TGI [31] was > 100 µM, the TGI [32] was > 100 µM and the TGI [33] was > 100 µM. For the same compound, the TGI [34] was > 81.9 µM, the TGI [35] was > 100 µM and the TGI [36] was > 100 µM. The TGI [37] was > 100 µM, the TGI [38] was > 100 µM and the TGI [39] was > 100 µM. The TGI [40] was > 100 µM, the TGI [41] was > 55.9 µM and the TGI [42] was > 100 µM. For the same compound, the TGI [43] was > 100 µM, the TGI [44] was 41.4 µM and the TGI [45] was > 100 µM. The TGI [46] was > 100 µM, the TGI [47] was > 100 µM and the TGI [48] was > 100 µM. The TGI [49] was > 100 µM, the TGI [50] was > 100 µM and the TGI [51] was 51.2 µM. The TGI [52] was > 100 µM, the TGI [53] was > 100 µM and the TGI [54] was > 100 µM. The TGI [55] was > 100 µM, the TGI [56] was > 100 µM and the TGI [57] was > 100 µM. For the same compound, the TGI [58] was > 100 µM and the TGI [59] was > 100 µM.
With `O=S(=O)(O)c1ccc2c(N=Nc3cccc4ccccc34)c(O)c(S(=O)(=O)O)cc2c1` the TGI [1] was > 100 µM, the TGI [2] was > 100 µM and the TGI [3] was > 100 µM. The TGI [4] was > 100 µM, the TGI [5] was > 100 µM and the TGI [6] was > 100 µM. For the same compound, the TGI [7] was > 100 µM, the TGI [8] was > 100 µM and the TGI [9] was > 100 µM. For the same compound, the TGI [10] was > 100 µM, the TGI [11] was > 100 µM and the TGI [12] was > 100 µM. For the same compound, the TGI [13] was > 100 µM, the TGI [14] was > 100 µM and the TGI [15] was > 100 µM. For the same compound, the TGI [16] was > 100 µM, the TGI [17] was > 100 µM and the TGI [18] was > 100 µM. The TGI [19] was > 100 µM, the TGI [20] was > 100 µM and the TGI [21] was > 100 µM. The TGI [22] was > 100 µM, the TGI [23] was > 100 µM and the TGI [24] was > 100 µM. The TGI [25] was > 100 µM, the TGI [26] was > 100 µM and the TGI [27] was > 100 µM. For the same compound, the TGI [28] was > 100 µM, the TGI [29] was > 100 µM and the TGI [30] was > 100 µM. The TGI [31] was > 100 µM, the TGI [32] was > 100 µM and the TGI [33] was > 100 µM. The TGI [34] was > 100 µM, the TGI [35] was > 100 µM and the TGI [36] was > 100 µM. For the same compound, the TGI [37] was > 100 µM, the TGI [38] was > 100 µM and the TGI [39] was > 100 µM. The TGI [40] was > 100 µM, the TGI [41] was > 100 µM and the TGI [42] was > 100 µM. The TGI [43] was > 100 µM, the TGI [44] was > 100 µM and the TGI [45] was > 100 µM. The TGI [46] was > 100 µM, the TGI [47] was > 100 µM and the TGI [48] was > 100 µM. The TGI [49] was > 100 µM, the TGI [50] was > 100 µM and the TGI [51] was > 100 µM. The TGI [52] was > 100 µM, the TGI [53] was > 100 µM and the TGI [54] was > 100 µM. For the same compound, the TGI [55] was > 100 µM, the TGI [56] was > 100 µM and the TGI [57] was > 100 µM. For the same compound, the TGI [58] was > 100 µM and the TGI [59] was > 100 µM.
With `O=c1[nH]c2cc(Cl)ccc2nc1/C(=N/Nc1ccccc1)C(O)c1ccco1` (stereo unspecified) the TGI [1] was > 100 µM, the TGI [2] was > 100 µM and the TGI [3] was > 100 µM. The TGI [4] was > 100 µM, the TGI [5] was > 100 µM and the TGI [6] was > 100 µM. For the same compound, the TGI [7] was > 100 µM, the TGI [8] was > 100 µM and the TGI [9] was > 100 µM. The TGI [10] was > 100 µM, the TGI [11] was > 100 µM and the TGI [12] was > 100 µM. For the same compound, the TGI [13] was > 100 µM, the TGI [14] was > 100 µM and the TGI [15] was > 100 µM. For the same compound, the TGI [16] was > 100 µM, the TGI [17] was > 100 µM and the TGI [18] was > 100 µM. For the same compound, the TGI [19] was > 100 µM, the TGI [20] was > 100 µM and the TGI [21] was > 100 µM. The TGI [22] was > 100 µM, the TGI [23] was > 100 µM and the TGI [24] was > 100 µM. The TGI [25] was > 100 µM, the TGI [26] was > 100 µM and the TGI [27] was > 100 µM. The TGI [28] was > 100 µM, the TGI [29] was > 100 µM and the TGI [30] was > 100 µM. For the same compound, the TGI [31] was > 100 µM, the TGI [32] was > 100 µM and the TGI [33] was > 100 µM. The TGI [34] was > 100 µM, the TGI [35] was > 100 µM and the TGI [36] was > 100 µM. The TGI [37] was > 100 µM, the TGI [38] was > 100 µM and the TGI [39] was > 100 µM. The TGI [40] was > 100 µM, the TGI [41] was > 100 µM and the TGI [42] was > 100 µM. For the same compound, the TGI [43] was > 100 µM, the TGI [44] was > 100 µM and the TGI [45] was > 100 µM. The TGI [46] was > 100 µM, the TGI [47] was > 100 µM and the TGI [48] was > 100 µM. For the same compound, the TGI [49] was > 100 µM, the TGI [50] was > 100 µM and the TGI [51] was > 100 µM. The TGI [52] was > 100 µM, the TGI [53] was > 100 µM and the TGI [54] was > 100 µM. The TGI [55] was > 100 µM, the TGI [56] was > 100 µM and the TGI [57] was > 100 µM. The TGI [58] was > 100 µM and the TGI [59] was > 100 µM.
`Cn1c([N+](=O)[O-])cnc1CN1CCN(CCO)CC1` was tested, and the TGI [1] was > 100 µM, the TGI [2] was > 100 µM and the TGI [3] was > 100 µM. The TGI [4] was > 100 µM, the TGI [5] was > 100 µM and the TGI [6] was > 100 µM. The TGI [7] was > 100 µM, the TGI [8] was > 100 µM and the TGI [9] was > 100 µM. For the same compound, the TGI [10] was > 100 µM, the TGI [11] was > 100 µM and the TGI [12] was > 100 µM. The TGI [13] was > 100 µM, the TGI [14] was > 100 µM and the TGI [15] was > 100 µM. For the same compound, the TGI [16] was > 100 µM, the TGI [17] was > 100 µM and the TGI [18] was > 100 µM. The TGI [19] was > 100 µM, the TGI [20] was > 100 µM and the TGI [21] was > 100 µM. The TGI [22] was > 100 µM, the TGI [23] was > 100 µM and the TGI [24] was > 100 µM. For the same compound, the TGI [25] was > 100 µM, the TGI [26] was > 100 µM and the TGI [27] was > 100 µM. The TGI [28] was > 100 µM, the TGI [29] was > 100 µM and the TGI [30] was > 100 µM. For the same compound, the TGI [31] was > 100 µM, the TGI [32] was > 100 µM and the TGI [33] was > 100 µM. For the same compound, the TGI [34] was > 100 µM, the TGI [35] was > 100 µM and the TGI [36] was > 100 µM. The TGI [37] was > 100 µM, the TGI [38] was > 100 µM and the TGI [39] was > 100 µM. For the same compound, the TGI [40] was > 100 µM, the TGI [41] was > 100 µM and the TGI [42] was > 100 µM. For the same compound, the TGI [43] was > 100 µM, the TGI [44] was > 100 µM and the TGI [45] was > 100 µM. The TGI [46] was > 100 µM, the TGI [47] was > 100 µM and the TGI [48] was > 100 µM. The TGI [49] was > 100 µM, the TGI [50] was > 100 µM and the TGI [51] was > 100 µM. For the same compound, the TGI [52] was > 100 µM, the TGI [53] was > 100 µM and the TGI [54] was > 100 µM. The TGI [55] was > 100 µM, the TGI [56] was > 100 µM and the TGI [57] was > 100 µM. The TGI [58] was > 100 µM and the TGI [59] was > 100 µM.
